Where “and” joins values, the source holds several entries; their conditions need not be identical. Equal values may be shown once.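 These data come from cells grown in 96-well plates and exposed to compound for 48 hours at five concentrations. GI50 is the concentration that inhibits growth by half. TGI denotes the concentration required for complete inhibition of growth.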
Tests used:
Experiment in all cases: NCI tumour cell line growth inhibition, 48 h
[1] = tested on: UACC-257 melanoma
[2] = tested on: SK-MEL-28 melanoma
[3] = tested on: P388/ADR leukemia
[4] = tested on: SNB-78 CNS
[5] = tested on: SN12K1 renal
[6] = tested on: SF-268 CNS
[7] = tested on: KM20L2 colon
[8] = tested on: IGROV1 ovarian
[9] = tested on: RPMI-8226 leukemia
[10] = tested on: OVCAR-5 ovarian
[11] = tested on: DMS 273 small cell lung
[12] = tested on: HCC-2998 colon
[13] = tested on: CAKI-1 renal
[14] = tested on: SW-620 colon
[15] = tested on: SF-539 CNS
[16] = tested on: HCT-15 colon
[17] = tested on: SN12C renal
[18] = tested on: CCRF-CEM leukemia
[19] = tested on: HL-60(TB) leukemia
[20] = tested on: MCF7 breast
[21] = tested on: OVCAR-3 ovarian
[22] = tested on: DLD-1 colon
[23] = tested on: P388 leukemia
[24] = tested on: SF-295 CNS
[25] = tested on: HCT-116 colon
[26] = tested on: OVCAR-8 ovarian
[27] = tested on: NCI-H23 lung
[28] = tested on: NCI/ADR-RES ovarian
[29] = tested on: RXF 393 renal
[30] = tested on: MALME-3M melanoma
[31] = tested on: SK-MEL-2 melanoma
[32] = tested on: NCI-H460 lung
[33] = tested on: SK-MEL-5 melanoma
[34] = tested on: HOP-62 NSCLC
[35] = tested on: KM12 colon
[36] = tested on: DMS 114 small cell lung
[37] = tested on: A498 renal
[38] = tested on: XF 498 CNS
[39] = tested on: M19-MEL melanoma
[40] = tested on: A549 NSCLC
[41] = tested on: NCI-H522 lung
[42] = tested on: SNB-19 CNS
[43] = tested on: HOP-18 NSCLC
[44] = tested on: COLO 205 colon
[45] = tested on: SNB-75 CNS
[46] = tested on: NCI-H226 lung
[47] = tested on: HOP-92 NSCLC
[48] = tested on: OVCAR-4 ovarian
[49] = tested on: HT29 colon
[50] = tested on: UACC-62 melanoma
[51] = tested on: UO-31 renal
[52] = tested on: MOLT-4 leukemia
[53] = tested on: U251 CNS
[54] = tested on: LOX IMVI melanoma
[55] = tested on: K-562 leukemia
[56] = tested on: SK-OV-3 ovarian
[57] = tested on: EKVX NSCLC

SMILES: O=C(O)/C=C/c1c[nH]c(=O)[nH]c1=O
- TGI [1]: > 500 µM
- TGI [2]: > 500 µM
- TGI [3]: > 500 µM
- TGI [4]: > 500 µM
- TGI [5]: > 500 µM
- TGI [6]: > 500 µM
- TGI [7]: > 500 µM
- TGI [8]: > 500 µM
- TGI [9]: > 500 µM
- GI50 [10]: > 500 µM
- TGI [10]: > 500 µM
- TGI [11]: > 500 µM
- TGI [12]: > 500 µM
- TGI [13]: > 500 µM
- TGI [14]: > 500 µM
- TGI [15]: > 500 µM
- TGI [16]: > 500 µM
- GI50 [17]: > 500 µM
- TGI [17]: > 500 µM
- TGI [18]: > 316 µM
- TGI [19]: > 500 µM
- TGI [20]: > 500 µM
- TGI [21]: > 500 µM
- TGI [22]: > 500 µM
- TGI [23]: > 500 µM
- GI50 [24]: > 158 µM
- TGI [24]: > 232 µM
- TGI [25]: > 500 µM
- TGI [26]: > 500 µM
- TGI [27]: > 500 µM
- TGI [28]: > 472 µM
- GI50 [29]: > 500 µM
- TGI [29]: > 500 µM
- TGI [30]: > 500 µM
- TGI [31]: > 500 µM
- TGI [32]: > 500 µM
- TGI [33]: > 500 µM
- GI50 [34]: > 250 µM
- TGI [34]: > 250 µM
- TGI [35]: > 500 µM
- TGI [36]: > 500 µM
- GI50 [37]: > 500 µM
- TGI [37]: > 500 µM
- GI50 [38]: > 500 µM and 151 µM
- TGI [38]: > 500 µM
- TGI [39]: > 500 µM
- TGI [40]: > 500 µM
- TGI [41]: > 500 µM
- TGI [42]: > 500 µM
- TGI [43]: > 500 µM
- TGI [44]: > 500 µM
- TGI [45]: > 500 µM
- TGI [46]: > 500 µM
- GI50 [47]: > 500 µM and 76.3 µM
- TGI [47]: > 500 µM
- GI50 [48]: > 500 µM
- TGI [48]: > 500 µM
- GI50 [49]: > 500 µM
- TGI [49]: > 500 µM
- TGI [50]: > 500 µM
- TGI [51]: > 500 µM
- TGI [52]: > 281 µM
- TGI [53]: > 500 µM
- TGI [54]: > 500 µM
- TGI [55]: > 500 µM
- TGI [56]: > 500 µM
- TGI [57]: > 500 µM

Source: PubChem BioAssay (NCI)
